In patent US5292737A, “N,N'-bis(sulfonamido)-2-amino-4-iminonaphthalen-1-ones and N,N'-bis(amido)-2-amino-4-iminonaphthalen-1-ones” (Sphinx Pharmaceuticals Corporation, priority 1992, dated 1994):
Read-outs that look alike come from different tables or passages of the source.

What was measured:
PKC isoenzyme α = biological target: T1, PKC isoenzyme α (Homo sapiens, UniProt P17252); test: Protein kinase C inhibition assay, PKC isoenzyme α; format: biochemical
T1 construct: made in house; host or cells: baculovirus-insect cell expression system
Procedure: (§1) A protein kinase C (PKC) assay is designed to duplicate the in vivo conditions required for protein kinase C function. Therefore, pH, salt and cofactor concentrations are similar to physiologic levels. Either lysine rich histone H1 (H1) or Myelin basic protein (Mbp) are used in the assay as the phosphorylation acceptor-protein because they are readily available and serve as good substrates for protein kinase C. Enzyme was prepared from baculovirus-insect cell expression systems.
(§2) In the screening assay, phosphatidylserine (PS) and DAG were co-sonicated to form unilamellar and multilamellar vesicles. The concentration of lipids in the assay were suboptimal to maximize the detection potential of the assay for inhibitors or activators. Potential effector compounds were added to the assay in dimethylsulfoxide at four concentrations to give final inhibitor concentrations of 1, 10, 50, and 150 μM, respectively.
(§3) The assay was started with the addition of enzyme and stopped after 10 min by the addition of 25% trichloroacetic acid (TCA) and 1.0 mg/ml bovine serum albumin (BSA). The radioactive histone product was retained and washed on glass fiber filters that allow the unreacted P-ATP to pass through. The amount of phosphorylation was determined by measuring radioactivity with a scintillation counter. Controls were included in every assay to measure background activity in the absence of enzyme, activity in the absence of lipids, and the maximum enzyme activity with saturating levels of the activator lipids.
(§4) Results of the protein kinase C assay are shown in Table 4 in columns labeled α, βII, γ, δ, ε, and .zeta. which represent various PKC isoenzymes. Results are show as IC50, which is the concentration of test compound needed to inhibit 50% of the protein kinase C activity in controls.

[1] = biological target: cAMP dependent protein kinase (PKA); test: cAMP Dependent Protein Kinase (PKA) Assay; format: biochemical; settings: for IC50: catalytic subunit of PKA; for effect on PKA activity: result in words
Procedure: Compounds found to be inhibitors of protein kinase C were tested for inhibitory activity against cAMP dependent protein kinase (PKA). This enzyme, like protein kinase C, plays an important role in cell-cell communication and is activated by a second messenger, cAMP. Secondary screening against PKA is useful for ascertaining the selectivity of the compounds of the invention.
The catalytic subunit of PKA (Sigma Chemical Company, St. Louis, Mo.) was mixed with buffer before addition of the inhibitor in dimethylsulfoxide (DMSO). Potential inhibitor compounds were added to the assay in dimethylsulfoxide at two concentrations to give final inhibitor concentrations of 30 and 150 μM, respectively. The assay was started by the addition of ^32 P-ATP and the reaction was allowed to proceed for 10 min before stopping with 25% trichloroacetic acid (TCA) and 1.0 mg/ml bovine serum albumin (BSA). Phosphorylated protein was then isolated by filtration and the radioactivity was counted by a beta scintillation counter.

human neutrophils = test: Neutrophil Superoxide Anion (O2) Release Assay, PMA-stimulated; format: cell-based; settings: PMA-stimulated human neutrophils, read-out: Neutrophil Superoxide Release IC50
Text: Phorbol-12,13-myristate acetate (PMA) stimulates O2 production in human neutrophils which in turn reduces cytochrome C. Reducing cytochrome C increases absorbance and the change in optical density (OD) is proportional to the amount of O2 produced by PMA stimulation. Inhibition is expressed as an IC50 value and is the amount of test compound that will inhibit fifty percent of the PMA-stimulated respiratory outburst, i.e. O2^31 production (Lherer et al. (1981) J. Clinical lnvest. 68:1314; Roberts et al. (1982) J. Immunological Methods 49:193).
Human donor blood in 0.38% Sodium Citrate was centrifuged for 10 minutes at 160 ×g at room temperature. Platelet-rich plasma was removed leaving the buffy coat and the red cell-enriched fraction. Saline with 0.38% Sodium Citrate was added to this fraction up to the original blood volume. The enriched blood sample was diluted 1:1 (v:v) with 3% dextran T500 (Pharmacia) in normal saline and placed in a 60 cc syringe, inverted over a beaker and allowed to settle 30 minutes at room temperature.
Leukocyte-enriched plasma was removed from the syringe, placed into 50 ml polypropylene conical centrifuge tubes and underlaid with 15-20 ml Lymphocyte Separation Medium (LSM Organon Technica). The tubes were centrifuged for 40 minutes at 500×g at room temperature. The plasma, buffy coat and LSM were aspirated off the pellets which contained red blood cells and neutrophils.
The pellets were vortexed and 10 ml ice-cold 0.2% NaCl was added to lyse the red blood cells while vortexing again for 10 seconds. Ice-cold 1.6% NaCl was added while vortexing for 10 seconds. The cells were combined from multiple tubes, centrifuged 10 min at 400×g at 4° C. This red cell lysis was repeated and the resulting neutrophil pellet was washed once in Reaction HBSS (GIBCO, HBSS with Ca^++ and Mg^++,.238% HEPES, 0.1% dextrose, 0.1% RIA grade bovine serum albumin, PH 7.2). The cells were resuspended in 1/5 the original blood volume with Reaction HBSS, counted and adjusted to 4.0×10^6 cells/ml at 4° C.
Duplicate samples of neutrophils were tested in 12×75 mm polypropylene tubes containing 0.25 ml of the neutrophil suspension. Cytochrome C mix (0.25 ml, 6.0 mg/ml cytochrome C type IV (Sigma) plus 1200 U/ml bovine liver catalase (Sigma) in Reaction HBSS described above) was added. PMA was added at 2×the final concentration in 0.5 ml of Reaction HBSS. PMA final test concentration were 0.0, 0.3, 9.0, 27.0, and 81.0 ng/ml. The tubes were vortexed and incubated for 10 minutes at 37° C. with shaking. After chilling for 5 minutes at 4° C. and centrifuging for 10 minutes at 4° C., 550×g, 0.5 ml of supernatant was removed from each tube. Normal saline (0.5 ml) was added to each 0.5 ml sample of supernatant and the absorbance of each sample was read at 550 nm on a spectrophotometer (Shimadzu). The PMA concentration which gives nearly maximal stimulation of superoxide release was determined.
The test samples of neutrophils were prepared as in the PMA dose response through addition of cytochrome C mix. Then 0.4 ml of Reaction HBSS as a control or test agent at 2.5×final test concentration was added and the tubes were vortexed and incubated for 30 minutes at 37° C. with shaking. PMA (0.1 ml) was added at a 10× concentration of the final concentration determined above. The samples were incubated for 10 minutes at 37° C. with shaking, chilled for 5 minutes at 4° C., and then centrifuged for 5 minutes at 550×g at 4° C. The supernatant (0.5 ml) was diluted with 0.5 ml normal saline as above and the absorbance was then determined at 550 nm. The percent change was calculated as follows: [formula] D-sphingosine (Sigma) used as reference standard.
Human neutrophils were first isolated according to Lherer et al. ((1981) J. Clinical Invest. 68:1314) and then tested for stimulation of superoxide anion release with phorbol--12,13-myristate acetate (PMA) in a dose-dependent manner. […]

PKC isoenzyme γ = biological target: T2, PKC isoenzyme γ (Homo sapiens, UniProt P05129); test: Protein kinase C inhibition assay, PKC isoenzyme γ; format: biochemical
T2 construct: made in house; host or cells: baculovirus-insect cell expression system
Procedure: as §1, §2, §3, §4

Row | SMILES | IC50 (PKC isoenzyme α; IC50 PKC α) [µM] | IC50 [1] [µM] | effect on PKA activity [1] | IC50 (human neutrophils; Homo sapiens, Neutrophil) [µM] | IC50 (PKC isoenzyme γ; IC50 PKC γ) [µM] | IC50 (PKC isoenzyme α; read-out: IC50 PKC α) [µM] | IC50 (PKC isoenzyme γ; read-out: IC50 PKC γ) [µM] | IC50 (human neutrophils) [µM]
1 | O=C1C(Nc2ccc(S(=O)(=O)NCCNc3ccc([N+](=O)[O-])cn3)cc2)=CC(=Nc2ccc(S(=O)(=O)NCCNc3ccc([N+](=O)[O-])cn3)cc2)c2ccccc21 [Compound 3ac] | 85 | > 150 | did not effect on PKA activity | 0.05 | 22 |  |  | 
2 | Cc1cc(C)nc(NS(=O)(=O)c2cccc(N=C3C=C(Nc4cccc(S(=O)(=O)Nc5cc(C)cc(C)n5)c4)C(=O)c4ccccc43)c2)c1 [Compound 3ae] |  | > 150 | did not effect on PKA activity | 0.04 |  | 31 | 16 | 
3 | COc1cc(NS(=O)(=O)c2ccc(N=C3C=C(Nc4ccc(S(=O)(=O)Nc5cc(OC)cc(OC)c5)cc4)C(=O)c4ccccc43)cc2)cc(OC)c1 [Compound 3af] |  | 62 |  | 0.06 |  | 102 | 40 | 
4 | Cc1cc(C)nc(NS(=O)(=O)c2cc(N=C3C=C(Nc4ccc(C)c(S(=O)(=O)Nc5cc(C)cc(C)n5)c4)C(=O)c4ccccc43)ccc2C)c1 [Compound 3ag] |  | > 150 | did not effect on PKA activity | 0.04 |  | 7 | 20 | 
5 | Cc1cc(C)nc(NC(=O)c2ccc(N=C3C=C(Nc4ccc(C(=O)Nc5cc(C)cc(C)n5)cc4)C(=O)c4ccccc43)cc2)c1 [Compound 3ah] |  |  |  | 8.97 |  | 136 | 70 | 
6 | Cc1cc(C)nc(NC(=O)c2ccc(N=C3C=C(Nc4ccc(C(=O)Nc5nc(C)cc(C)n5)cc4)C(=O)c4ccccc43)cc2)n1 [Compound 3ai] |  | > 150 | did not effect on PKA activity | 4.02 |  | 56 | 9 | 
7 | Cc1noc(NS(=O)(=O)c2ccc(N=C3C=C(Nc4ccc(S(=O)(=O)Nc5onc(C)c5C)cc4)C(=O)c4ccccc43)cc2)c1C [Compound 3b] |  | > 150 | did not effect on PKA activity | 7.6 |  | 30 | 25 | 
8 | Cc1cc(C)nc(NS(=O)(=O)c2ccc(N=C3C=C(Nc4ccc(S(=O)(=O)Nc5nc(C)cc(C)n5)cc4)C(=O)c4ccccc43)cc2)n1 [Compound 3c] |  | > 150 | did not effect on PKA activity |  |  | 17 | 21 | 0.77
9 | Cc1cc(NS(=O)(=O)c2ccc(N=C3C=C(Nc4ccc(S(=O)(=O)Nc5cc(C)nc(C)n5)cc4)C(=O)c4ccccc43)cc2)nc(C)n1 [Compound 3d] |  | > 150 | did not effect on PKA activity | 5.85 |  | 37 | 36 | 
10 | Cc1nnc(NS(=O)(=O)c2ccc(N=C3C=C(Nc4ccc(S(=O)(=O)Nc5nnc(C)s5)cc4)C(=O)c4ccccc43)cc2)s1 [Compound 3e] |  | 55 |  | 8.38 |  | 17 | 22 | 
11 | Cc1ccnc(NS(=O)(=O)c2ccc(N=C3C=C(Nc4ccc(S(=O)(=O)Nc5nccc(C)n5)cc4)C(=O)c4ccccc43)cc2)n1 [Compound 3f] |  | 48 |  | 2.51 |  | 28 | 29 | 
12 | COc1cc(NS(=O)(=O)c2ccc(N=C3C=C(Nc4ccc(S(=O)(=O)Nc5cc(OC)nc(OC)n5)cc4)C(=O)c4ccccc43)cc2)nc(OC)n1 [Compound 3g] |  | > 150 | did not effect on PKA activity |  |  | 32 | 14 | 2.75
13 | COc1cnc(NS(=O)(=O)c2ccc(N=C3C=C(Nc4ccc(S(=O)(=O)Nc5ncc(OC)cn5)cc4)C(=O)c4ccccc43)cc2)nc1 [Compound 3h] |  | > 150 | did not effect on PKA activity |  |  | 105 | 55 | 8.7
14 | O=C1C(Nc2ccc(S(=O)(=O)Nc3ccccn3)cc2)=CC(=Nc2ccc(S(=O)(=O)Nc3ccccn3)cc2)c2ccccc21 [Compound 3i] |  | > 150 | did not effect on PKA activity | 0.1 |  | 23 | 15 | 
15 | COc1ccc(NS(=O)(=O)c2ccc(N=C3C=C(Nc4ccc(S(=O)(=O)Nc5ccc(OC)nn5)cc4)C(=O)c4ccccc43)cc2)nn1 [Compound 3j] |  | > 150 | did not effect on PKA activity | 1.74 |  | 67 | 15 | 
16 | O=C1C(Nc2ccc(S(=O)(=O)Nc3ccc(Cl)nn3)cc2)=CC(=Nc2ccc(S(=O)(=O)Nc3ccc(Cl)nn3)cc2)c2ccccc21 [Compound 3l] |  | 98 |  |  |  | 27 | 7 | 0.9
17 | O=C1C(Nc2ccc(S(=O)(=O)Nc3cnc4ccccc4n3)cc2)=CC(=Nc2ccc(S(=O)(=O)Nc3cnc4ccccc4n3)cc2)c2ccccc21 [Compound 3m] |  | 82 |  | 1.31 |  | 8 | 14 | 
18 | Cc1cc(NS(=O)(=O)c2ccc(N=C3C=C(Nc4ccc(S(=O)(=O)Nc5cc(C)on5)cc4)C(=O)c4ccccc43)cc2)no1 [Compound 6a] |  | 157 |  |  |  |  |  | 8
19 | COc1cc(NS(=O)(=O)c2ccc(N=C3C=C(Nc4ccc(S(=O)(=O)Nc5cc(OC)cc(OC)c5)cc4)C(=O)c4ccccc43)cc2)cc(OC)c1 [Compound 6af] |  |  |  |  |  | 113 | 60 | 0.07
